Biological target: T1, Human Polθ polymerase domain (aa1820-2590) (Homo sapiens, UniProt O75417)
T1 construct: Human Polθ polymerase domain (aa1820-2590) was expressed in E. coli; made in house; host or cells: E. coli
T1 sequence (O75417 1820-2590): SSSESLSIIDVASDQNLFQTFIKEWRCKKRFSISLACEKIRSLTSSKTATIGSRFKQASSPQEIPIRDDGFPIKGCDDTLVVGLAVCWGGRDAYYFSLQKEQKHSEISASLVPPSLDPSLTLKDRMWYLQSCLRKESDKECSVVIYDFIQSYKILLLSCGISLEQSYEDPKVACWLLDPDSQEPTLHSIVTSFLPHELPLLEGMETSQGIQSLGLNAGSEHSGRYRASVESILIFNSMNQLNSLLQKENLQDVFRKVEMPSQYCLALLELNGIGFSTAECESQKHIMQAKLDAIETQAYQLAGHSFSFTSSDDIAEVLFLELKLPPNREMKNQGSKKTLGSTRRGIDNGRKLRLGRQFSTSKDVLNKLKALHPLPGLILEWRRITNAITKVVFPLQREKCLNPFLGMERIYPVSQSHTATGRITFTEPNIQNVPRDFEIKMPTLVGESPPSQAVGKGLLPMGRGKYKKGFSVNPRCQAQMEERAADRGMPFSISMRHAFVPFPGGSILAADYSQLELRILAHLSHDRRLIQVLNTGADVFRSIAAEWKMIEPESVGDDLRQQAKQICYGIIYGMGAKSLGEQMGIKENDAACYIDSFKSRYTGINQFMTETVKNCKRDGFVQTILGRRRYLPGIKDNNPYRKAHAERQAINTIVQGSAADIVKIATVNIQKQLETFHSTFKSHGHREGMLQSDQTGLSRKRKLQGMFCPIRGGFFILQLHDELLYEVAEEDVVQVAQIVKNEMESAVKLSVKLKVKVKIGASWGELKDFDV
Assay: Polθ Polymerase Domain Kinact/KI Assay (PicoGreen)
Type: biochemical
Details: 0.8 nM Polθ, 100 nM DNA substrate, kobs vs [I] fit for 2-step covalent inhibitor
How it was run: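 Enzyme 0.8 nM, annealed DNA substrate 100 nM, […]; 25 mM Tris pH 7.5, 5% glycerol, 0.01% Triton X-100, 0.1 mg/ml BSA, 1 mM DTT, 1% DMSO. Quench with EDTA at timepoints to 60 min; PicoGreen read. kobs from time courses → Kinact/KI.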

Compound | Kinact/Kl [M⁻¹ s⁻¹]
Cc1cc(C(F)(F)F)cc(N2C(=O)C[C@@H]3CN(Cc4ccc5c(c4)N(C(=O)/C=C/CN(C)C)CCO5)c4c(Cl)cccc4N(C)C(=O)[C@H]32)n1 [Example 251, (3aR,11aS)-6-chloro-5-((4-((E)-4-(dimethylamino)but-2-enoyl)-3,4-dihydro-2H-benzo[b][1,4]oxazin-6-yl)methyl)-10-methyl-1-(6-methyl-4-(trifluoromethyl)pyridin-2-yl)-1,3a,4,5,10,11a-hexahydro-2H-benzo[b]pyrrolo[2,3-f][1,4]diazocine-2,11(3H)-dione] | 370000
Cc1cc(C(F)(F)F)cc(N2C(=O)C[C@@H]3CN(Cc4ccc5c(c4)CN(C(=O)/C(Cl)=C/CN(C)C)C5)c4c(C)cccc4N(C)C(=O)[C@H]32)n1 [Example 255, (3aR,11aS)-5-((2-((Z)-2-chloro-4-(dimethylamino)but-2-enoyl)isoindolin-5-yl)methyl)-6,10-dimethyl-1-(6-methyl-4-(trifluoromethyl)pyridin-2-yl)-1,3a,4,5,10,11a-hexahydro-2H-benzo[b]pyrrolo[2,3-f][1,4]diazocine-2,11(3H)-dione] | 980000
C=CC(=O)N1CCN(CCN2C[C@H]3CC(=O)N(c4cc(C(F)(F)F)cc(C)n4)[C@@H]3C(=O)N(C)c3cccc(C)c32)CC1 [Example 256, (3aR,11aS)-5-(2-(4-acryloylpiperazin-1-yl)ethyl)-6,10-dimethyl-1-(6-methyl-4-(trifluoromethyl)pyridin-2-yl)-1,3a,4,5,10,11a-hexahydro-2H-benzo[b]pyrrolo[2,3-f][1,4]diazocine-2,11(3H)-dione] | 1.11e+06
C=CC(=O)N1Cc2ncn(CCN3C[C@H]4CC(=O)N(c5cc(C(F)(F)F)cc(C)n5)[C@@H]4C(=O)N(C)c4cccc(Cl)c43)c2C1 [Example 259, (3aR,11aS)-5-(2-(5-acryloyl-5,6-dihydropyrrolo[3,4-d]imidazol-1(4H)-yl)ethyl)-6-chloro-10-methyl-1-(6-methyl-4-(trifluoromethyl)pyridin-2-yl)-1,3a,4,5,10,11a-hexahydro-2H-benzo[b]pyrrolo[2,3-f][1,4]diazocine-2,11(3H)-dione] | 150000
C=CC(=O)N1CC2CC(C1)N2CCN1C[C@H]2CC(=O)N(c3cc(C(F)(F)F)cc(C)n3)[C@@H]2C(=O)N(C)c2cccc(C)c21 [Example 261, (3aR,11aS)-5-(2-(3-acryloyl-3,6-diazabicyclo[3.1.1]heptan-6-yl)ethyl)-6,10-dimethyl-1-(6-methyl-4-(trifluoromethyl)pyridin-2-yl)-1,3a,4,5,10,11a-hexahydro-2H-benzo[b]pyrrolo[2,3-f][1,4]diazocine-2,11(3H)-dione] | 340000
C=CC(=O)N1CC2CCC(C1)N2CCN1C[C@H]2CC(=O)N(c3cc(C(F)(F)F)cc(C)n3)[C@@H]2C(=O)N(C)c2cccc(C)c21 [Example 262, (3aR,11aS)-5-(2-(3-acryloyl-3,8-diazabicyclo[3.2.1]octan-8-yl)ethyl)-6,10-dimethyl-1-(6-methyl-4-(trifluoromethyl)pyridin-2-yl)-1,3a,4,5,10,11a-hexahydro-2H-benzo[b]pyrrolo[2,3-f][1,4]diazocine-2,11(3H)-dione] | 710000
C=CC(=O)N1C[C@H]2C[C@@H]1CN2CCN1C[C@H]2CC(=O)N(c3cc(C(F)(F)F)cc(C)n3)[C@@H]2C(=O)N(C)c2cccc(C)c21 [Example 263, (3aR,11aS)-5-(2-((1R,4R)-5-acryloyl-2,5-diazabicyclo[2.2.1]heptan-2-yl)ethyl)-6,10-dimethyl-1-(6-methyl-4-(trifluoromethyl)pyridin-2-yl)-1,3a,4,5,10,11a-hexahydro-2H-benzo[b]pyrrolo[2,3-f][1,4]diazocine-2,11(3H)-dione] | 1.06e+06

Results, then the molecule that gave them:

Kinact/Kl [M⁻¹ s⁻¹] | Compound
1.19e+06 | Cc1cc(C(F)(F)F)cc(N2C(=O)C[C@@H]3CN(CCCCNC(=O)/C=C/CN(C)C)c4c(Cl)cccc4N(C)C(=O)[C@H]32)n1 [Example 252, (E)-N-(4-((3aR,11aS)-6-chloro-10-methyl-1-(6-methyl-4-(trifluoromethyl)pyridin-2-yl)-2,11-dioxo-1,2,3,3a,4,10,11,11a-octahydro-5H-benzo[b]pyrrolo[2,3-f][1,4]diazocin-5-yl)butyl)-4-(dimethylamino)but-2-enamide]
1.42e+06 | Cc1cc(C(F)(F)F)cc(N2C(=O)C[C@@H]3CN(CC(F)CCCNC(=O)/C=C/CN(C)C)c4c(Cl)cccc4N(C)C(=O)[C@H]32)n1 (stereo partly drawn) [Example 253, (E)-N-(5-((3aR,11aS)-6-chloro-10-methyl-1-(6-methyl-4-(trifluoromethyl)pyridin-2-yl)-2,11-dioxo-1,2,3,3a,4,10,11,11a-octahydro-5H-benzo[b]pyrrolo[2,3-f][1,4]diazocin-5-yl)-4-fluoropentyl)-4-(dimethylamino)but-2-enamide]
2.13e+06 | Cc1cc(C(F)(F)F)cc(N2C(=O)C[C@@H]3CN(CCCCC4CN(C(=O)/C(Cl)=C/CN(C)C)C4)c4c(C)cccc4N(C)C(=O)[C@H]32)n1 [Example 254, (3aR,11aS)-5-(4-(1-((Z)-2-chloro-4-(dimethylamino)but-2-enoyl)azetidin-3-yl)butyl)-6,10-dimethyl-1-(6-methyl-4-(trifluoromethyl)pyridin-2-yl)-1,3a,4,5,10,11a-hexahydro-2H-benzo[b]pyrrolo[2,3-f][1,4]diazocine-2,11(3H)-dione]
1.54e+06 | C=CC(=O)N1CCN(CCN2C[C@H]3CC(=O)N(c4cc(C(F)(F)F)cc(C)n4)[C@@H]3C(=O)N(C)c3cccc(C)c32)[C@@H](C)C1 [Example 260, (3aR,11aS)-5-(2-((S)-4-acryloyl-2-methylpiperazin-1-yl)ethyl)-6,10-dimethyl-1-(6-methyl-4-(trifluoromethyl)pyridin-2-yl)-1,3a,4,5,10,11a-hexahydro-2H-benzo[b]pyrrolo[2,3-f][1,4]diazocine-2,11(3H)-dione]
1.25e+06 | C#CC(=O)N1CCN(CCN2C[C@H]3CC(=O)N(c4cc(C(F)(F)F)cc(C)n4)[C@@H]3C(=O)N(C)c3cccc(C)c32)CC1 [Example 264, (3aR,11aS)-6,10-dimethyl-1-(6-methyl-4-(trifluoromethyl)pyridin-2-yl)-5-(2-(4-propioloylpiperazin-1-yl)ethyl)-1,3a,4,5,10,11a-hexahydro-2H-benzo[b]pyrrolo[2,3-f][1,4]diazocine-2,11(3H)-dione]
590000 | C=CC(=O)N1CCN(CCCN2C[C@H]3CC(=O)N(c4cc(C(F)(F)F)cc(C)n4)[C@@H]3C(=O)N(C)c3cccc(Cl)c32)CC1 [Example 266, (3aR,11aS)-5-(3-(4-acryloylpiperazin-1-yl)propyl)-6-chloro-10-methyl-1-(6-methyl-4-(trifluoromethyl)pyridin-2-yl)-1,3a,4,5,10,11a-hexahydro-2H-benzo[b]pyrrolo[2,3-f][1,4]diazocine-2,11(3H)-dione]
410000 | C=CC(=O)N1CCC[C@@H]1c1noc(CN2C[C@H]3CC(=O)N(c4cc(C(F)(F)F)cc(C)n4)[C@@H]3C(=O)N(C)c3cccc(C)c32)n1 [Example 268, (3aR,11aS)-5-((3-((R)-1-acryloylpyrrolidin-2-yl)-1,2,4-oxadiazol-5-yl)methyl)-6,10-dimethyl-1-(6-methyl-4-(trifluoromethyl)pyridin-2-yl)-1,3a,4,5,10,11a-hexahydro-2H-bez[b]pyrrolo[2,3-f][1,4]diazocine-2,11(3H)-dione]

Reference: patent US20250230165A1, “HETEROCYCLIC COMPOUNDS FOR USE IN THE TREATMENT OF CANCER” (ARTIOS PHARMA LIMITED, priority 2021, published 2025)
